In US11583524B2, “Inhibitors of the interaction between MDM2 and P53” (Janssen Pharmaceutica NV, priority 2007, dated 2023):
Structures can show the parent of a compound that is named as a salt.

Experiments:
[1] = test system: A2780 ovarian cancer cells; test: Alamar Blue cell proliferation assay, A2780; assay type: cell-based, human; conditions: Homo sapiens, 96 h, 4-day incubation, read-out: A2780 cell proliferation inhibition pIC50 (converted)
Experimental: Cellular activity of the compounds of formula (I) was determined on A2780 tumour cells using a colorimetric assay for cell toxicity or survival (see example C.2).
The human A2780 ovarian cancer cells were a kind gift from Dr. T. C. Hamilton (Fox Chase Cancer Centre, Pennsylvania, U.S.A.). The cells were cultured in RPMI 1640 medium supplemented with 2 mM L-Glutamine, 50 μg/ml gentamicin and 10% fetal calf serum.
(§1) Resazurin was purchased from Aldrich (Prod. No. 199303). Potassium ferrocyanide, potassium ferricyanide, KH2PO4 and K2HPO4 were purchased from Sigma (Prod. Nos. P9387, P8131, P5655 and P8281, respectively).
(§2) Potassium Phosphate Buffer 0.1 M (PPB) was made as follows: 2.72 gram KH2PO4 and 13.86 gram K2HPO4 were dissolved in 500 ml milli-Q H2O, the pH was adjusted to pH 7.4 and the volume was brought to 1 litre with milli-Q H2O; the buffer was filter sterilised and stored at room temperature. Resazurin stock solution (PPB-A) was prepared fresh by dissolving 45 mg resazurin in 15 ml PBS. 30 mM potassium ferricyanide (PPB-B) was prepared by dissolving 0.987 gram potassium ferricyanide in 100 ml PPB. 30 mM potassium ferrocyanide (PPB-C) was prepared by dissolving 1.266 gram potassium ferrocyanide in 100 ml PPB.
(§3) Mixture of PPB-A, PPB-B and PPB-C was prepared by mixing equal volumes of the respective solutions. Resazurin work solution (herein termed “Alamar Blue” solution) was prepared by diluting said mixture 20×(vol/vol) in PPB and filter sterilising; the Alamar Blue solution could be kept at 4° C. for a maximum of 2 weeks.
(§4) For experiments in 384 wells plates the cells were seeded at a density of 5×10^3 cells/ml in Falcon 384-well culture plates (Life Technologies, Merelbeke, Belgium), black with clear bottom, in 45 μl culture medium. Cells were allowed to adhere to plastic for 24 hr. The tested compound was pre-diluted (1/50 in culture medium) and 5 μl pre-diluted compound was added to the wells. Following 4-day incubation, 10 μl of the Alamar Blue solution was added to each well and the cells were further incubated for 5 hrs (A2780) or 6 hrs (U87MG) at 37° C. The fluorescence intensity was measured for each well with a Fluorescence plate reader (Fluorskan, Labsystems, 540 nm excitation and 590 nm emission)
(§5) The antiproliferative activity was calculated as percentage of remaining viable cells in treated versus control (untreated cells) conditions. Within an experiment, the result for each experimental condition is the mean of 3 replicate wells. When appropriate, the experiments were repeated to establish full concentration-response curves. When appropriate, IC50-values (concentration of the drug, needed to reduce cell growth to 50% of the control) were computed using probit analysis for graded data (Finney, D. J., Probit Analyses, 2nd Ed. Chapter 10, Graded Responses, Cambridge University Press, Cambridge 1962). Herein the effects of test compounds are expressed as pIC50 (the negative log value of the IC50-value) (see Table 4).

p53 in A2780 cells = test: p53 ELISA (preservation of p53 in A2780 cells); assay type: cell-based, human; conditions: Homo sapiens, lowest dose giving at least 140% of the p53 value in the control, 16 hours treatment, read-out: p53-elisa LAD
Experimental: The capacity of the compounds to preserve p53 in A2780 cells was measured with the p53 enzyme linked immunosorbent assay (ELISA). The p53 assay is a “sandwich” enzyme immunoassay employing two polyclonal antibodies. A polyclonal antibody, specific for the p53 protein, has been immobilized onto the surface of the plastic wells. Any p53 present in the sample to be assayed will bind to the capture antibody. The biotinylated detector polyclonal antibody also recognizes p53 protein, and will bind to any p53, which has been retained by the capture antibody. The detector antibody, in turn, is bound by horseradish peroxidase-conjugated streptavidin. The horseradish peroxidase catalyses the conversion of the chromogenic substrate o-phenylene diamine, the intensity of which is proportional to the amount of p53 protein bound to the plate. The coloured reaction product is quantified using a spectrophotometer. Quantitation is achieved by the construction of a standard curve using known concentrations of purified recombinant HIS tagged p53 protein (see example C.1).
A2780 cells (ATCC) were cultivated in RPMI 1640 supplemented with 10% fetal calf serum (FCS), 2 mM L-glutamine and gentamycin at 37° C. in a humidified incubator with 5% CO2.
A2780 cells were seeded at 20.000 cells per well in a 96 well plate, cultured for 24 hours and treated with compound for 16 hours at 37° C. in a humidified incubator. After incubation, the cells were washed once with phosphate-buffered saline and 30 μl, per well, low salt RIPA buffer (20 mM tris, pH7.0, 0.5 mM EDTA, 1% Nonidet P40, 0.5% DOC, 0.05% SDS, 1 mM PMSF, 1 μg/ml aprotinin and 0.5 μ/ml leupeptin) was added. Plates were placed on ice for 30 minutes to complete the lysis. p53 protein was detected in de lysates by using the sandwich ELISA, described below.
High binding polystyrene EIA/RIA 96 well plates (Costar 9018) were coated with the capture antibody pAb1801 (Abcam ab28-100) at a concentration of 1 μg/ml in coating buffer (0.1 M NaHCO3 pH8.2), 50 μl per well. The antibody was allowed to adhere overnight at 4° C. Coated plates were washed once with phosphate-buffered saline (PBS)/0.05% Tween 20 and 300 μl of blocking buffer (PBS, 1% bovine serum albumins (BSA)) was added, for an incubation period of 2 hours at room temperature. Dilutions of purified recombinant HIS tagged p53 protein, ranging from 3-200 ng/ml, were made in blocking buffer and used as standards.
Plates were washed twice with PBS/0.05% Tween 20 and blocking buffer or standards were added at 80 μl/well. To the standards, 20 μl of lysis buffer was added. The samples were added to the other wells at 20 μl lysate/well. After an overnight incubation at 4° C., plates were washed twice with PBS/0.05% Tween 20. Aliquots of 100 μl secondary polyclonal antibody p53(FL-393) (Tebubio, sc-6243) at a concentration of 1 μg/ml in blocking buffer were added to each well and allowed to adhere for 2 hours at room temperature. Plates were washed three times with PBS/0.05% Tween 20. Detection antibody anti-rabbit HRP (sc-2004, Tebubio) at 0.04 μg/ml in PBS/1% BSA was added and incubated for 1 hour at room temperature. Plates were washed three times with PBS/0.05% Tween 20 and 100 μl of substrate buffer was added (substrate buffer was prepared shortly before use by adding 1 tablet of 10 mg o-phenylene diamine (OPD) from Sigma and 125 μl 3% H2O2 to 25 ml OPD buffer: 35 mM citric acid, 66 mM Na2HPO4, pH5.6). After 5 to 10 minutes, colour reaction was stopped by adding 50 μl stop buffer (1 M H2SO4) per well. The absorbance at dual wavelengths of 490/655 nm was measured using a Biorad micro plate reader and the results were then analyzed.
For each experiment, controls (containing no drug) and a blank incubation (containing no cells or drugs) were run in parallel. The blank value was subtracted from all control and sample values. For each sample, the value of p53 (in absorbance units) was expressed as the percentage of the value for p53 present in the control. […]

U87MG glioma cells = test: Alamar Blue cell proliferation assay, U87MG; assay type: cell-based, human; conditions: Homo sapiens, U-87 MG, 96 h, 4-day incubation, read-out: U87MG cell proliferation inhibition pIC50 (converted)
Experimental: The human U87MG glioma cells were cultured in DMEM medium supplemented with 2 mM L-Glutamine, 1 mM Sodium Pyruvate, 1.5 g/L Sodium Bicarbonate, 50 μg/ml gentamicin and 10% heat inactivated fetal calf serum. (U87MG cells are human glioblastoma cells with wild type p53. In this cell line MDM2 tightly controls p53 expression).
as §1, §2, §3, §4, §5

SMILES | melting point [°C] | IC50 [1] [µM] | IC50 (U87MG glioma cells) [µM] | minimal effective concentration (p53 in A2780 cells) [µM]
OCc1cc(Nc2cc(F)c(NCCc3c[nH]c4ccccc34)c(F)c2)ccn1 (as salt: hydrochloric acid salt) [Compound 14] | 110 |  |  | 
Cc1c(NCCc2c[nH]c3ccccc23)ccc(Nc2ccncc2)c1C [Compound 1] | 186 | > 10 | > 10 | > 10
Cc1c(NCCc2c[nH]c3ccccc23)ccc(Nc2ccnc(CO)c2)c1C [Compound 2] | 163 | > 10 | 7.76 | 3
FC(F)(F)c1cc(Nc2ccncc2)cc(C(F)(F)F)c1NCCc1c[nH]c2ccccc12 [Compound 3] | 187 | > 10 | > 10 | > 10
OC1CCc2c(Nc3cc(C(F)(F)F)c(NCCc4c[nH]c5ccccc45)c(C(F)(F)F)c3)ccnc21 (centres unmarked) [Compound 5] | 178 | > 10 | > 10 | 0.3
c1ccc2c(CCNc3ccc(Nc4ccncc4)c4ccccc34)c[nH]c2c1 [Compound 6] | 166 | > 10 | 1.58 | 1
Cc1cc(Nc2ccnc3c2CCC3O)c(Cl)cc1NCCc1c[nH]c2ccccc12 (centres unmarked) [Compound 9] | 207 | 4.17 | > 10 | > 10
Cc1cc(Nc2ccnc3c2CCC3O)c(Cl)cc1NCCc1c[nH]c2c(C)cccc12 (centres unmarked) [Compound 10] | 237 | 3.55 | 2.82 | 1
Fc1cc(Nc2ccncc2)cc(F)c1NCCc1c[nH]c2ccccc12 [Compound 11] | 164 | > 10 | 4.9 | > 10

The next lines start with results.

melting point [°C] | IC50 [1] [µM] | IC50 (U87MG glioma cells) [µM] | SMILES | minimal effective concentration (p53 in A2780 cells) [µM]
147 | 8.32 | 6.92 | OC1CCc2c(Nc3cc(F)c(NCCc4c[nH]c5ccccc45)c(F)c3)ccnc21 (centres unmarked) [Compound 17] | 1
115 | > 10 | > 10 | OCc1cc(Nc2cc(Cl)c(NCCc3c[nH]c4ccccc34)c(Cl)c2)ccn1 [Compound 24] | > 10
186 | > 10 | > 10 | Cc1[nH]c2ccccc2c1CCNc1c(Cl)cc(Nc2ccnc(CO)c2)cc1Cl [Compound 25] | 3
175 | ~2.57 | 1.32 | COc1ccc2c(CCNc3c(Cl)cc(Nc4ccnc5ccccc45)cc3Cl)c[nH]c2c1 [Compound 31] | 1
123 | 0.501 | 0.646 | COc1c(Nc2ccnc3c2CCC3O)ccc(NCCc2c[nH]c3c(OC)cccc23)c1F (centres unmarked) [Compound 49] | 1
241 | > 10 | > 10 | CC(=O)Nc1cc(NCCc2c[nH]c3ccccc23)c(F)cc1Nc1ccncc1 [Compound 50] | > 10
192 | > 10 | 3.98 | OCc1cc(NCCc2c[nH]c3ccccc23)c(Br)cc1Nc1ccnc2ccccc12 [Compound 53] | > 10
245 | > 10 | > 10 | Cl.N#Cc1c(NCCc2c[nH]c3ccccc23)ccc(Nc2ccncc2)c1N1CCOCC1 [Compound 55] | > 10
 | 0.0851 | 0.339 | C=C(C)c1cccc2c(CCNc3ccc(Nc4ccnc5c4CCC5O)c(OC)c3F)c[nH]c12 (centres unmarked) [Compound 64] | 0.3
